Data on 3 molecules can be found in patent US20200319201A1, “METHODS FOR MONITORING TUBERCULOSIS MEDICATION” (priority 2017, published 2020).

A short description of this data set: Liquid chromatography mass spectrometry analysis of fingerprint sweat samples for Tuberculosis medication and metabolite. It counts as in vivo, human. Particulars: for percentage of fingerprint samples in which detected: 75 samples; for number of fingerprint samples in which detected (of 25 fingerprints): 5 subjects who had finished a course of Isoniazid at least 72 hours previously. The method, then: All subjects from whom fingerprint samples were taken were human. Fingerprints were taken from the five fingers (i.e. the four fingers and the thumb) of each subject's right hand: • without the hand having been washed; or • after the hand has been washed with soap and water, and covered with a clean surgical glove for 10 minutes, without contacting any other surface.
The chromatography paper with fingerprint samples thereon were placed in a 2 ml Eppendorf microcentrifuge tube, following which an extraction solution (1.5 ml of 10% dichloromethane in methanol) was added. The tube was then centrifuged for 2 min (at 9.5 centrifugal force). The solvent extract was evaporated to dryness under a stream of nitrogen at room temperature (20° C.) and reconstituted in 100 μl mobile phase solution (95:5 water/acetonitrile+0.1% formic acid+iosotopically labelled internal standards) before being vortexed and transferred to a 300 μl glass micro-insert vial, with 5 μl being injected onto an LC-MS/MS system.
Chromatographic separation was performed on a Thermo Scientific™ Ultimate3000 UHPLC system equipped with a binary solvent manager, column manager and autosampler. The injection volume was 5 μL. Separation was performed on a Kinetex XB-C18 column (100×2.1 mm, 5 μm) operated at 30° C. at a flow rate of 0.25 ml/min. Mobile phase comprises 95% H2O (0.1% formic acid) and 5% acetonitrile (ACN) (0.1% formic acid).
The prepared samples were introduced to a Thermo Orbitrap Q-Exactive Plus mass spectrometer using the standard ESI interface with a capillary temperature of 320° C. and spray voltage 3 kV. Positive mass spectra were acquired in full scan mode within a range of m/z 50-500 at a mass resolution of 70 000 at m/z 200.

Where [1] appears, read: after washing hands using soap and water, same subjects as Example 1, isoniazid 300 mg (one 400 mg).
Setting [2] is: after washing hands using soap and water, same subjects as Example 1.
The mark [3] stands for this setting: hands not washed, approximately 3 hours after 300 mg isoniazid (one subject 400 mg), 15 subjects.
Setting [4] is: hands not washed, approximately 3 hours after 300 mg isoniazid (one subject 400 mg).
The mark [5] stands for this setting: hands washed using soap and water.
The mark [6] stands for this setting: sample obtained 2 hours after the subject had taken Isoniazid.
Setting [7] is: sample obtained 72 hours after the subject had taken Isoniazid.

On to `CC(=O)NNC(=O)c1ccncc1` [Acetylisoniazid], for which the “number of fingerprint samples in which detected (out of the 75 fingerprint samples)” value runs as follows: under setting [1], 72; under setting [3], 73. The “percentage of fingerprint samples in which detected” value (shortened to “percentage of fingerprint samples”) under setting [2] turned out to be 96% and the “percentage of fingerprint samples” value under setting [4] came to 97%. Besides, the “number of fingerprint samples in which detected (of 25 fingerprints)” value (shortened to “number … (of 25 fingerprints)”) (hands not washed) is 0 and the “number … (of 25 fingerprints)” value under setting [5] was 0. Besides, the “presence in fingerprint sweat sample” value reads like this: under setting [6], “shows the presence”; under setting [7], “does not show the presence”.
Consider `NNC(=O)c1ccncc1` [Isoniazid], for which the “number of fingerprint samples in which detected (out of the 75 fingerprint samples)” value came to 40 under setting [1] and 51 under setting [3]. In addition, the “percentage of fingerprint samples” value is recorded as 53% under setting [2] and 68% under setting [4]. The “number … (of 25 fingerprints)” value reads like this: (hands not washed) 0; under setting [5], 0. For the same molecule, the “presence in fingerprint sweat sample” value is, setting by setting: under setting [6], “shows the presence”; under setting [7], “does not show the presence”.
Turning to `NC(=O)c1cnccn1` [pyrazinamide, Pyrazinamide], under “approximately 3 hours after 1,000 mg pyrazinamide, hands washed”, the “presence in fingerprint sample” value was “presence of pyrazinamide is evidenced”.
